Reference: ChEMBL document CHEMBL5214944, “Preparation of radiolabeled erlotinib analogues and analysis of the effect of linkers” (Bioorg Med Chem Lett, 2022)

Tests used:
[1] = Cytotoxicity against human A-431 cells assessed as inhibition of cell growth at 100 uM incubated for 72 hrs by MTT assay; type: toxicity, cell-based
[2] = Cytotoxicity against human A-431 cells assessed as inhibition of cell growth at 50 uM incubated for 24 hrs by MTT assay; type: toxicity, cell-based; conditions: read-out: Activity
A-431 = assay: Cytotoxicity against human A-431 cells assessed as inhibition of cell growth at 100 uM incubated for 24 hrs by MTT assay; type: toxicity, cell-based; conditions: a-431, 24 h
[3] = Retention time of the compound by RP-HPLC analysis; type: physicochemical
[4] = Biodistribution in Swiss mouse assessed as accumulation at radioactivity in liver at 3 MBq, iv and measured 1 hr post injection by gamma counter method; type: ADME, organism-based; conditions: in vivo
[5] = Octanol/water partition coefficient, logP of compound by gamma counter analysis; type: physicochemical

| Retention_time [3] [min] | SMILES | inhibition at 72 h, 100 µM [1] [%] | Activity (A-431) | further results |
| --- | --- | --- | --- | --- |
|  | C#Cc1cccc(Nc2ncnc3cc(OCCOC)c(OCCOC)cc23)c1 [ERLOTINIB] | 92.7 |  | inhibition at 24 h, 50 µM [2]: 29.8% |
| 18.5 | COCCOc1cc2ncnc(Nc3cccc(-c4cn(CCOCCOCCOCCOCCOCCOCCNC(=S)Nc5ccc(CC6CN(CC(=O)O)CCN(CC(=O)O)CCN(CC(=O)O)CCN6CC(=O)O)cc5)nn4)c3)c2cc1OCCOC (stereo not drawn) | 90.9 | Toxic |  |
| 15.9 | COCCOc1cc2ncnc(Nc3cccc(-c4cn(CCOCCOCCOCCN)nn4)c3)c2cc1OCCOC |  |  |  |
|  | C#Cc1cccc(Nc2ncnc3cc(OCCOC)c(OCCO[11CH3])cc23)c1 |  |  | Drug uptake [4]: 10.55 % ID/g; logP [5]: 3.2 |
| 17.2 | COCCOc1cc2ncnc(Nc3cccc(-c4cn(CCOCCOCCOCCNC(=S)Nc5ccc(CC6CN(CC(=O)O)CCN(CC(=O)O)CCN(CC(=O)O)CCN6CC(=O)O)cc5)nn4)c3)c2cc1OCCOC (stereo not drawn) | 92.6 | Toxic |  |
|  | COCCOc1cc2ncnc(Nc3cccc(-c4cn(CC[18F])nn4)c3)c2cc1OCCOC |  |  | Drug uptake [4]: 17.1 % ID/g; logP [5]: 2.36 |
| 17.4 | COCCOc1cc2ncnc(Nc3cccc(-c4cn(CCOCCOCCOCCOCCOCCOCCN)nn4)c3)c2cc1OCCOC |  |  |  |
| 13.5 | COCCOc1cc2ncnc(Nc3cccc(-c4cn(CCCN)nn4)c3)c2cc1OCCOC |  |  |  |
| 15.9 | COCCOc1cc2ncnc(Nc3cccc(-c4cn(CCCNC(=S)Nc5ccc(CC6CN(CC(=O)O)CCN(CC(=O)O)CCN(CC(=O)O)CCN6CC(=O)O)cc5)nn4)c3)c2cc1OCCOC (stereo not drawn) | 91.3 | Non-Toxic |  |
